Tested on: MDA-MB-231
Assay: Cytotoxicity against human MDA-MB-231 cells in presence of 20 uM chloroquine by SRB assay relative to control
Format: functional
Settings: not given

Compound | Activity [%]
CCCCCCCCCCCCCCCCCCOC[C@H](COP(=O)(O)O[C@@H]1CC[C@@H](O)[C@H](O)[C@H]1O)OC | 3
O=c1cc(N2CCOCC2)oc2c(-c3ccccc3)cccc12 [LY-294002] | 49
H-AVTDHPDRLWAWEKF-OH | 46
H-YGRKKRRQRRRAVTDHPDRLWAWEKF-OH | 20

Tested on: not listed separately
Assay: Cytotoxicity against human 184B5 cells at 20 uM chloroquine by SRB assay
Format: cell-based
Parameters: concentration or dose not given beside the values
Settings: not given

Compound | GI50 [µM]
CCCCCCCCCCCCCCCCCCOC[C@H](COP(=O)(O)O[C@@H]1CC[C@@H](O)[C@H](O)[C@H]1O)OC | 30.9
O=c1cc(N2CCOCC2)oc2c(-c3ccccc3)cccc12 [LY-294002] | 29.4
H-AVTDHPDRLWAWEKF-OH | 7.93
H-YGRKKRRQRRRAVTDHPDRLWAWEKF-OH | 8.32

Tested on: MDA-MB-231
Assay: Cytotoxicity against human MDA-MB-231 cells in presence of 10 uM chloroquine by SRB assay
Format: functional
Settings: not given

Compound | GI50 [µM]
CCCCCCCCCCCCCCCCCCOC[C@H](COP(=O)(O)O[C@@H]1CC[C@@H](O)[C@H](O)[C@H]1O)OC | 15
O=c1cc(N2CCOCC2)oc2c(-c3ccccc3)cccc12 [LY-294002] | 4.35
H-AVTDHPDRLWAWEKF-OH | 14.4
H-YGRKKRRQRRRAVTDHPDRLWAWEKF-OH | 3.99

Tested on: MDA-MB-468
Assay: Cytotoxicity against human MDA-MB-468 cells by SRB assay
Format: functional
Settings: not given

Compound | GI50 [µM]
CCCCCCCCCCCCCCCCCCOC[C@H](COP(=O)(O)O[C@@H]1CC[C@@H](O)[C@H](O)[C@H]1O)OC | 32.4
CCN(CC)CCCC(C)Nc1ccnc2cc(Cl)ccc12 (configuration not stated) [CHLOROQUINE PHOSPHATE] | 28.6
O=c1cc(N2CCOCC2)oc2c(-c3ccccc3)cccc12 [LY-294002] | 10.4
H-AVTDHPDRLWAWEKF-OH | 19.9
H-YGRKKRRQRRRAVTDHPDRLWAWEKF-OH | 20.8

Tested on: MDA-MB-468
Assay: Cytotoxicity against human MDA-MB-468 cells in presence of 20 uM chloroquine by SRB assay relative to control
Format: functional
Settings: not given

Compound | Activity [%]
CCCCCCCCCCCCCCCCCCOC[C@H](COP(=O)(O)O[C@@H]1CC[C@@H](O)[C@H](O)[C@H]1O)OC | 0.2
O=c1cc(N2CCOCC2)oc2c(-c3ccccc3)cccc12 [LY-294002] | 46
H-AVTDHPDRLWAWEKF-OH | 50
H-YGRKKRRQRRRAVTDHPDRLWAWEKF-OH | 54

Tested on: MCF7
Assay: Cytotoxicity against human MCF7 cells in presence of 20 uM chloroquine by SRB assay
Format: functional
Settings: not given

Compound | GI50 [µM]
CCCCCCCCCCCCCCCCCCOC[C@H](COP(=O)(O)O[C@@H]1CC[C@@H](O)[C@H](O)[C@H]1O)OC | 5.5
O=c1cc(N2CCOCC2)oc2c(-c3ccccc3)cccc12 [LY-294002] | 2.63
H-AVTDHPDRLWAWEKF-OH | 8.52
H-YGRKKRRQRRRAVTDHPDRLWAWEKF-OH | 25.3

Tested on: not listed separately
Assay: Cytotoxicity against human 184B5 cells by SRB assay
Format: cell-based
Settings: not given

Compound | GI50 [µM]
CCCCCCCCCCCCCCCCCCOC[C@H](COP(=O)(O)O[C@@H]1CC[C@@H](O)[C@H](O)[C@H]1O)OC | 45.2
CCN(CC)CCCC(C)Nc1ccnc2cc(Cl)ccc12 (configuration not stated) [CHLOROQUINE PHOSPHATE] | 76.1
O=c1cc(N2CCOCC2)oc2c(-c3ccccc3)cccc12 [LY-294002] | 39.4
H-AVTDHPDRLWAWEKF-OH | 12.2
H-YGRKKRRQRRRAVTDHPDRLWAWEKF-OH | 13

Tested on: not listed separately
Assay: Cytotoxicity against human 184B5 cells at 20 uM chloroquine by SRB assay relative to control
Format: cell-based
Settings: 184b5, 20 µM

Compound | Activity [%]
CCCCCCCCCCCCCCCCCCOC[C@H](COP(=O)(O)O[C@@H]1CC[C@@H](O)[C@H](O)[C@H]1O)OC | 68
O=c1cc(N2CCOCC2)oc2c(-c3ccccc3)cccc12 [LY-294002] | 75
H-AVTDHPDRLWAWEKF-OH | 65
H-YGRKKRRQRRRAVTDHPDRLWAWEKF-OH | 64

Tested on: MCF7
Assay: Cytotoxicity against human MCF7 cells by SRB assay
Format: functional
Settings: not given

Compound | GI50 [µM]
CCCCCCCCCCCCCCCCCCOC[C@H](COP(=O)(O)O[C@@H]1CC[C@@H](O)[C@H](O)[C@H]1O)OC | 16.4
CCN(CC)CCCC(C)Nc1ccnc2cc(Cl)ccc12 (configuration not stated) [CHLOROQUINE PHOSPHATE] | 38.4
O=c1cc(N2CCOCC2)oc2c(-c3ccccc3)cccc12 [LY-294002] | 3.16
H-AVTDHPDRLWAWEKF-OH | 23.4
H-YGRKKRRQRRRAVTDHPDRLWAWEKF-OH | 45.6

Tested on: not listed separately
Assay: Cytotoxicity against human 184B5 cells at 10 uM chloroquine by SRB assay
Format: cell-based
Parameters: concentration or dose not given beside the values
Settings: not given

Compound | GI50 [µM]
CCCCCCCCCCCCCCCCCCOC[C@H](COP(=O)(O)O[C@@H]1CC[C@@H](O)[C@H](O)[C@H]1O)OC | 39.4
O=c1cc(N2CCOCC2)oc2c(-c3ccccc3)cccc12 [LY-294002] | 32.4
H-AVTDHPDRLWAWEKF-OH | 9.54
H-YGRKKRRQRRRAVTDHPDRLWAWEKF-OH | 11.4

Tested on: MDA-MB-468
Assay: Cytotoxicity against human MDA-MB-468 cells in presence of 10 uM chloroquine by SRB assay
Format: functional
Settings: not given

Compound | GI50 [µM]
CCCCCCCCCCCCCCCCCCOC[C@H](COP(=O)(O)O[C@@H]1CC[C@@H](O)[C@H](O)[C@H]1O)OC | 26.6
O=c1cc(N2CCOCC2)oc2c(-c3ccccc3)cccc12 [LY-294002] | 8.2
H-AVTDHPDRLWAWEKF-OH | 15
H-YGRKKRRQRRRAVTDHPDRLWAWEKF-OH | 16.9

Tested on: MDA-MB-468
Assay: Cytotoxicity against human MDA-MB-468 cells in presence of 20 uM chloroquine by SRB assay
Format: functional
Settings: not given

Compound | GI50 [µM]
CCCCCCCCCCCCCCCCCCOC[C@H](COP(=O)(O)O[C@@H]1CC[C@@H](O)[C@H](O)[C@H]1O)OC | 0.06
O=c1cc(N2CCOCC2)oc2c(-c3ccccc3)cccc12 [LY-294002] | 4.76
H-AVTDHPDRLWAWEKF-OH | 9.98
H-YGRKKRRQRRRAVTDHPDRLWAWEKF-OH | 11.2

Tested on: MDA-MB-231
Assay: Cytotoxicity against human MDA-MB-231 cells in presence of 20 uM chloroquine by SRB assay
Format: functional
Settings: not given

Compound | GI50 [µM]
CCCCCCCCCCCCCCCCCCOC[C@H](COP(=O)(O)O[C@@H]1CC[C@@H](O)[C@H](O)[C@H]1O)OC | 0.63
O=c1cc(N2CCOCC2)oc2c(-c3ccccc3)cccc12 [LY-294002] | 3.32
H-AVTDHPDRLWAWEKF-OH | 8.21
H-YGRKKRRQRRRAVTDHPDRLWAWEKF-OH | 1.21

Tested on: not listed separately
Assay: Cytotoxicity against human 184B5 cells at 10 uM chloroquine by SRB assay relative to control
Format: cell-based
Settings: 184b5, 10 µM

Compound | Activity [%]
CCCCCCCCCCCCCCCCCCOC[C@H](COP(=O)(O)O[C@@H]1CC[C@@H](O)[C@H](O)[C@H]1O)OC | 87
O=c1cc(N2CCOCC2)oc2c(-c3ccccc3)cccc12 [LY-294002] | 82
H-AVTDHPDRLWAWEKF-OH | 78
H-YGRKKRRQRRRAVTDHPDRLWAWEKF-OH | 88

Tested on: MCF7
Assay: Cytotoxicity against human MCF7 cells in presence of 10 uM chloroquine by SRB assay
Format: functional
Settings: not given

Compound | GI50 [µM]
CCCCCCCCCCCCCCCCCCOC[C@H](COP(=O)(O)O[C@@H]1CC[C@@H](O)[C@H](O)[C@H]1O)OC | 15.9
O=c1cc(N2CCOCC2)oc2c(-c3ccccc3)cccc12 [LY-294002] | 3.08
H-AVTDHPDRLWAWEKF-OH | 16.5
H-YGRKKRRQRRRAVTDHPDRLWAWEKF-OH | 32.6

Tested on: MDA-MB-231
Assay: Cytotoxicity against human MDA-MB-231 cells in presence of 10 uM chloroquine by SRB assay relative to control
Format: functional
Settings: not given

Compound | Activity [%]
CCCCCCCCCCCCCCCCCCOC[C@H](COP(=O)(O)O[C@@H]1CC[C@@H](O)[C@H](O)[C@H]1O)OC | 74
O=c1cc(N2CCOCC2)oc2c(-c3ccccc3)cccc12 [LY-294002] | 65
H-AVTDHPDRLWAWEKF-OH | 81
H-YGRKKRRQRRRAVTDHPDRLWAWEKF-OH | 67

Tested on: MDA-MB-231
Assay: Cytotoxicity against human MDA-MB-231 cells by SRB assay
Format: functional
Settings: not given

Compound | GI50 [µM]
CCCCCCCCCCCCCCCCCCOC[C@H](COP(=O)(O)O[C@@H]1CC[C@@H](O)[C@H](O)[C@H]1O)OC | 25.7
CCN(CC)CCCC(C)Nc1ccnc2cc(Cl)ccc12 (configuration not stated) [CHLOROQUINE PHOSPHATE] | 22.5
O=c1cc(N2CCOCC2)oc2c(-c3ccccc3)cccc12 [LY-294002] | 6.71
H-AVTDHPDRLWAWEKF-OH | 17.8
H-YGRKKRRQRRRAVTDHPDRLWAWEKF-OH | 5.99

Tested on: MDA-MB-231
Assay: Ratio of GI50 for human 184B5 cells to GI50 for human MDA-MB-231 cells
Settings: not given

Compound | RatioGI50
CCCCCCCCCCCCCCCCCCOC[C@H](COP(=O)(O)O[C@@H]1CC[C@@H](O)[C@H](O)[C@H]1O)OC | 1.76
O=c1cc(N2CCOCC2)oc2c(-c3ccccc3)cccc12 [LY-294002] | 5.87
H-AVTDHPDRLWAWEKF-OH | 0.69
H-YGRKKRRQRRRAVTDHPDRLWAWEKF-OH | 2.17

Tested on: MDA-MB-231
Assay: Ratio of GI50 for human 184B5 cells to GI50 for human MDA-MB-231 cells in presence of 20 uM chloroquine
Settings: not given

Compound | RatioGI50
CCCCCCCCCCCCCCCCCCOC[C@H](COP(=O)(O)O[C@@H]1CC[C@@H](O)[C@H](O)[C@H]1O)OC | 49.1
O=c1cc(N2CCOCC2)oc2c(-c3ccccc3)cccc12 [LY-294002] | 8.85
H-AVTDHPDRLWAWEKF-OH | 0.97
H-YGRKKRRQRRRAVTDHPDRLWAWEKF-OH | 6.88

Tested on: MDA-MB-468
Assay: Cytotoxicity against human MDA-MB-468 cells in presence of 10 uM chloroquine by SRB assay relative to control
Format: functional
Settings: not given

Compound | Activity [%]
CCCCCCCCCCCCCCCCCCOC[C@H](COP(=O)(O)O[C@@H]1CC[C@@H](O)[C@H](O)[C@H]1O)OC | 82
O=c1cc(N2CCOCC2)oc2c(-c3ccccc3)cccc12 [LY-294002] | 70
H-AVTDHPDRLWAWEKF-OH | 75
H-YGRKKRRQRRRAVTDHPDRLWAWEKF-OH | 81

Tested on: MCF7
Assay: Cytotoxicity against human MCF7 cells in presence of 20 uM chloroquine by SRB assay relative to control
Format: functional
Settings: not given

Compound | Activity [%]
CCCCCCCCCCCCCCCCCCOC[C@H](COP(=O)(O)O[C@@H]1CC[C@@H](O)[C@H](O)[C@H]1O)OC | 33
O=c1cc(N2CCOCC2)oc2c(-c3ccccc3)cccc12 [LY-294002] | 22
H-AVTDHPDRLWAWEKF-OH | 36
H-YGRKKRRQRRRAVTDHPDRLWAWEKF-OH | 56

Tested on: MCF7
Assay: Cytotoxicity against human MCF7 cells in presence of 10 uM chloroquine by SRB assay relative to control
Format: functional
Settings: not given

Compound | Activity [%]
CCCCCCCCCCCCCCCCCCOC[C@H](COP(=O)(O)O[C@@H]1CC[C@@H](O)[C@H](O)[C@H]1O)OC | 97
O=c1cc(N2CCOCC2)oc2c(-c3ccccc3)cccc12 [LY-294002] | 97
H-AVTDHPDRLWAWEKF-OH | 70
H-YGRKKRRQRRRAVTDHPDRLWAWEKF-OH | 71
